Assay results: PMC6152747, “Lipophilicity Studies on Thiosemicarbazide Derivatives” (Molecules : A Journal of Synthetic Chemistry and Natural …, 2017)

Assays:
[1] = biological target: S. aureus topoisomerase IV (topo IV); settings: previously tested, cited from earlier work; for IC50: read-out: Inhibitory Potency IC50 Topo IV
physchem = assay type: physicochemical; settings: for – S of standards: slope of Eq. 1; for −S: slope of logk vs. methanol concentration (Eq. 1); for chromatographic logP: read-out: logPHPLC
Description: Methanolic solutions (5 μL, 0.1%) of selected samples were applied to the chromatographic column (RP-18 Waters Symmetry, 15 cm length, 4.6 mm i.d., 5 μm particle size) by use of an autosampler Hitachi L-2200 (LaChrom Elite, Hitachi-Merck, Darmstadt, Germany). The mobile phase, consisting of a methanol and water mixture, was degassed by use of the built-in membrane degasser. […] Chromatograms were detected at 254 nm and the temperature of the column was 25 °C. All experiments were repeated in triplicate and the final results were taken to be the arithmetic means. Dead time was measured by use of uracil (Calbiochem. Merck, Darmstadt, Germany). All experiments were performed at ambient temperature.

[2] = set-up: method as in earlier work; settings: octanol–water; OECD guidelines; cited from earlier work
S. aureus DNA gyrase = settings: previously tested, read-out: Inhibitory Potency IC50 DNA Gyrase; cited from earlier work
[3] = same chromatographic conditions as compounds 1–17
[4] = Table 1, retention factor extrapolated to pure water (Eq. 1), methanol 45–75%, RP-18, 25 °C
[5] = Table 2, retention factor extrapolated to pure water
[6] = from logkw by calibration curve with seven OECD standards (Eq. 3)

| SMILES | logkw (physchem; [4]) | −S (physchem; Table 1) | logkw (physchem; [5]) | chromatographic logP (physchem; [6]) | also measured |
| --- | --- | --- | --- | --- | --- |
| Cc1nnsc1C(=O)NNC(=S)Nc1ccc(Br)cc1 [Compound 28] |  |  |  |  | IC50 [1]: 403 µM |
| c1ccc2ccccc2c1 [naphtalene, reference compound] |  |  |  |  | logkw of standards (physchem; Table S2, parameters of Eq. 1): 3.5779; – S of standards (physchem; Table S2): 4.2289; logkw of standards (physchem; [3]): 3.5502; known logPo/w of standards [2]: 3.6 |
| Oc1ccc2ccccc2n1 [2-hydroxyquinoline, reference compound] |  |  |  |  | logkw of standards (physchem; Table S2, parameters of Eq. 1): 1.4879; – S of standards (physchem; Table S2): 2.9059; logkw of standards (physchem; [3]): 1.3682 |
| O=C(NC(=S)NNC(=O)c1cc2ccccc2[nH]1)c1ccccc1 [Compound 18] |  |  |  |  | IC50 [1]: 14 µM; Inhibitory Potency IC50 Topo IV [1]: anti-topo IV activity |
| Cc1nc[nH]c1C(=O)NNC(=S)NC(=O)c1ccccc1 [Compound 20] |  |  |  |  | IC50 [1]: 90 µM; Inhibitory Potency IC50 Topo IV [1]: anti-topo IV activity |
| O=C(NNC(=S)NC1CCCCC1)c1cccc(O)c1 [Compound 17] | 2.7583 | 4.3297 | 2.7583 | 2.79 |  |
| O=C(NNC(=S)NC1CCCCC1)c1ccccc1O [Compound 13] | 3.2386 | 4.7076 | 3.2386 | 3.3 |  |
| O=C(NC(=S)NNC(=O)c1cccs1)c1ccccc1 [Compound 19] |  |  |  |  | IC50 (S. aureus DNA gyrase): 83.6 µM |
| CCc1ccccc1 [ethylbenzene, reference compound] |  |  |  |  | logkw of standards (physchem; Table S2, parameters of Eq. 1): 3.4018; – S of standards (physchem; Table S2): 3.8740; logkw of standards (physchem; [3]): 3.3754 |
| O=C(NNC(=S)Nc1ccc(F)cc1)c1cc2ccccc2[nH]1 [Compound 23] |  |  |  |  | IC50 (S. aureus DNA gyrase): 128 µM; IC50 [1]: 267 µM; Inhibitory Potency IC50 Topo IV [1]: weak inhibitory potency |
| COc1cccc(C(=O)NNC(=S)NC(=O)c2ccccc2C)c1 [Compound 5] | 3.4487 | 4.8562 | 3.4487 | 3.53 |  |
| O=C(NNC(=S)NC(=O)c1ccccc1Cl)c1ccccc1O [Compound 3] | 4.2230 | 6.1166 |  | 4.36 |  |
| O=C(NNC(=S)Nc1ccc(Cl)c(Cl)c1)c1ccccc1O [Compound 14] | 4.1453 | 5.6538 | 4.1453 | 4.27 |  |
| COc1cccc(C(=O)NNC(=S)NC(=O)c2ccccc2)c1 [Compound 4] | 3.3130 | 4.8205 | 3.3130 | 3.38 |  |
| O=C(NNC(=S)Nc1ccccc1)c1cccc(O)c1 [Compound 16] | 2.0687 | 4.1968 | 2.0687 | 2.05 |  |
| O=C(NNC(=S)Nc1ccc([N+](=O)[O-])cc1)c1cc2ccccc2[nH]1 [Compound 21] |  |  |  |  | IC50 [1]: 14 µM |
| COc1cccc(C(=O)NNC(=S)NC(=O)c2ccc(Cl)cc2)c1 [Compound 9] | 3.9422 | 5.3417 | 3.9422 | 4.05 |  |

| SMILES | logkw (physchem; [4]) | −S (physchem; Table 1) | logkw (physchem; [5]) | chromatographic logP (physchem; [6]) | also measured |
| --- | --- | --- | --- | --- | --- |
| O=C(NNC(=S)Nc1ccccc1F)c1cc2ccccc2[nH]1 [Compound 22] |  |  |  |  | IC50 [1]: 63.5 µM; Inhibitory Potency IC50 Topo IV [1]: weak inhibitory potency |
| COc1cccc(C(=O)NNC(=S)NC(=O)c2cccc(Cl)c2)c1 [Compound 8] | 3.7422 | 5.0742 | 3.7422 | 3.84 |  |
| O=C(NNC(=S)Nc1ccc([N+](=O)[O-])cc1)c1ccc[nH]1 [Compound 27] |  |  |  |  | IC50 (S. aureus DNA gyrase): 64.2 µM |
| COc1cccc(C(=O)NNC(=S)NC(=O)c2ccccc2Cl)c1 [Compound 7] | 3.8283 | 5.6579 | 3.8283 | 3.93 |  |
| O=C(NNC(=S)Nc1ccc(F)cc1F)c1cc2ccccc2[nH]1 [Compound 24] |  |  |  |  | IC50 [1]: 295 µM; Inhibitory Potency IC50 Topo IV [1]: weak inhibitory potency |
| O=C(NNC(=S)Nc1ccccc1)c1ccccc1O [Compound 12] | 2.4813 | 4.1962 | 2.4813 | 2.49 |  |
| O=C(CS(=O)(=O)c1ccccc1)NNC(=S)NC(=O)c1ccccc1Cl [Compound 10] | 3.2498 | 5.7291 | 3.2498 | 3.31 |  |
| Brc1ccccc1 [bromobenzene, reference compound] |  |  |  |  | logkw of standards (physchem; Table S2, parameters of Eq. 1): 3.0842; – S of standards (physchem; Table S2): 3.6630 |
| Cc1ccccc1 [toluene, reference compound] |  |  |  |  | – S of standards (physchem; Table S2): 3.4400 |
| O=C(NC(=S)NNC(=O)c1ccc[nH]1)c1ccccc1 [Compound 2] | 2.5105 | 4.1416 | 2.5105 | 2.53 | IC50 (S. aureus DNA gyrase): 93.3 µM; IC50 [1]: 41 µM; Inhibitory Potency IC50 Topo IV [1]: anti-topo IV activity |
| Cc1occc1C(=O)NNC(=S)NC(=O)c1ccccc1 [Compound 1] | 2.9992 | 4.3720 | 2.9992 | 3.05 | IC50 (S. aureus DNA gyrase): 14.6 µM |
| c1ccccc1 [benzene, reference compound] |  |  |  |  | logkw of standards (physchem; Table S2, parameters of Eq. 1): 2.2458; – S of standards (physchem; Table S2): 2.8691 |
| Nc1ccccc1 [aniline, reference compound] |  |  |  |  | logkw of standards (physchem; Table S2, parameters of Eq. 1): 1.1365; – S of standards (physchem; Table S2): 2.4091 |
| COc1cccc(C(=O)NNC(=S)NC(=O)c2cccc(C)c2)c1 [Compound 6] | 3.7864 | 5.1137 | 3.7864 | 3.89 |  |
| Cc1ccc(NC(=S)NNC(=O)c2ccccc2O)cc1Cl [Compound 15] | 3.9451 | 5.5432 | 3.9451 | 4.06 |  |
| O=C(NNC(=S)Nc1ccc(Cl)cc1)c1ccccc1O [Compound 11] | 3.3324 | 4.8778 | 3.3324 |  | logPHPLC (physchem; [6]): 3.4026 |
